Test results published in ChEMBL document CHEMBL1201862, “PubChem BioAssay data set” (2004).
Activity calls are given as the source filed them.

Key:
[1] = inhibition of bursicon-driven LGR2 cAMP signaling – cell-based, HEK293, CRE-luciferase reporter, cherry pick, dose response (AID 743342); assay type: functional
[2] = target: T1, Small ubiquitin-related modifier 1 (Homo sapiens, UniProt P63165); assay: SUMO1 protein interaction blockers, potency – biochemical, fluorescence polarization, uHTS hits, dose response (AID 624382); assay type: functional; conditions: read-out: IC50_Mean
T1 sequence (P63165 whole entry): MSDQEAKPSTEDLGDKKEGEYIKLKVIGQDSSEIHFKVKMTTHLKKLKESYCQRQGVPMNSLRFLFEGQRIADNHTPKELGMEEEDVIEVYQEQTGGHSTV

[3] = target: Small ubiquitin-related modifier 2 (Homo sapiens, UniProt P61956); assay: SUMO2 binding disruption by SUMO1 hits – biochemical, FRET, human SUMO2, uHTS hits, selectivity assay for SUMO1 interaction inhibitor project, dose response (AID 624384); assay type: functional; conditions: read-out: IC50_Mean
Sequence of Small ubiquitin-related modifier 2 (P61956 whole entry): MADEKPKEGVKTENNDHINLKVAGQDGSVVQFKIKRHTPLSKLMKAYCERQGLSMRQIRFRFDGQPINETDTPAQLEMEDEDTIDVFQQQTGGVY

[4] = target: T1, Small ubiquitin-related modifier 1; assay: SUMO1 protein-protein binding blockers, potency – biochemical, FRET, dose response (AID 624383); assay type: functional; conditions: read-out: IC50_Mean
Mu-type opioid receptor [5] = target: T2, Mu-type opioid receptor (Homo sapiens, UniProt P35372); assay type: functional, cell-based
T2 sequence (P35372 whole entry): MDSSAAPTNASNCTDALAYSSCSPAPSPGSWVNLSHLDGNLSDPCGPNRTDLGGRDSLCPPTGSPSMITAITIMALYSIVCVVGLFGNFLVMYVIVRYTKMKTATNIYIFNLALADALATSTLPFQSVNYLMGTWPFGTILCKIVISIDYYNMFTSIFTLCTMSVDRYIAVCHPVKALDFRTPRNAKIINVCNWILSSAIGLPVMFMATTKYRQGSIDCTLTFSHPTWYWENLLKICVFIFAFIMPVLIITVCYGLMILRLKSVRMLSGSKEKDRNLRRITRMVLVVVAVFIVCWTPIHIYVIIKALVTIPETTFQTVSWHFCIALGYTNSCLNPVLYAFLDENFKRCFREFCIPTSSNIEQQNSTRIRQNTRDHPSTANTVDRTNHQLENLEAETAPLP

[6] = target: 5-hydroxytryptamine receptor 2A (Mus musculus, UniProt P35363); assay type: functional, cell-based;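 further: CHO-K1 cells with tagged receptor and beta-arrestin; agonist potency measured as compound-induced activation of the receptor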
Sequence of 5-hydroxytryptamine receptor 2A (P35363 whole entry): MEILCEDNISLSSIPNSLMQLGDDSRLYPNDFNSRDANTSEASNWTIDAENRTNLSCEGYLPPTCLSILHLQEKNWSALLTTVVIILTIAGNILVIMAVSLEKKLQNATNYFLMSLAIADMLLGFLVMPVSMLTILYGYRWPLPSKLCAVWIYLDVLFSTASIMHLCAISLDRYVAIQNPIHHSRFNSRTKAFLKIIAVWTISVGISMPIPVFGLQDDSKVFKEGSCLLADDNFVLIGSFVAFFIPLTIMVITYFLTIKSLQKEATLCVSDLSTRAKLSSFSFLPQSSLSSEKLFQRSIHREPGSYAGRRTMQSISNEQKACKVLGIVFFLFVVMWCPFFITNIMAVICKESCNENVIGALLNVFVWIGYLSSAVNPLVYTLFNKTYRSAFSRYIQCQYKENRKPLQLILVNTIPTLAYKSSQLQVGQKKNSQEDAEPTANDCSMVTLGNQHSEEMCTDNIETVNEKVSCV

[7] = tested on: Streptococcus sp. 'group A'; assay: Streptococcus pyogenes SK(-)GAS viability under kanamycin – luminescence, BacTiterGlo, confirmation, counter-screen for streptokinase expression inhibitor project, dose response (AID 1900); assay type: functional, organism-based
Streptokinase A = target: T3, Streptokinase A (Streptococcus pyogenes serotype M1, UniProt P10520); assay: viability-normalized secreted streptokinase activity reduction – plasminogen activation absorbance, OD405, dose response (AID 1914); assay type: functional, Streptococcus pyogenes M1 GAS;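 further: secreted streptokinase activity via plasminogen activation per viability signal from cell pellet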
T3 sequence (P10520 whole entry): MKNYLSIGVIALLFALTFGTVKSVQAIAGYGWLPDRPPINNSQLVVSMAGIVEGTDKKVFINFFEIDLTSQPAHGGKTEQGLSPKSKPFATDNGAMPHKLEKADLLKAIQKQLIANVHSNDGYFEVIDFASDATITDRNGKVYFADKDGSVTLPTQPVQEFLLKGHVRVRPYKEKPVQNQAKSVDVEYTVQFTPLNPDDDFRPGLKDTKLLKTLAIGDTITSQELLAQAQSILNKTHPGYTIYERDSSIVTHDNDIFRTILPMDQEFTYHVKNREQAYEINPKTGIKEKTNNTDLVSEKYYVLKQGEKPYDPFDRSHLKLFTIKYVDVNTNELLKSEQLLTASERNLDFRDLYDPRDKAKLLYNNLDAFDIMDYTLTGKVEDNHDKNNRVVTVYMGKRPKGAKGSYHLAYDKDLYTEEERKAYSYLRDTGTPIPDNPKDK

[8] = target: Induced myeloid leukemia cell differentiation protein Mcl-1 (Homo sapiens, UniProt Q07820); assay type: functional
Sequence of Induced myeloid leukemia cell differentiation protein Mcl-1 (Q07820 whole entry): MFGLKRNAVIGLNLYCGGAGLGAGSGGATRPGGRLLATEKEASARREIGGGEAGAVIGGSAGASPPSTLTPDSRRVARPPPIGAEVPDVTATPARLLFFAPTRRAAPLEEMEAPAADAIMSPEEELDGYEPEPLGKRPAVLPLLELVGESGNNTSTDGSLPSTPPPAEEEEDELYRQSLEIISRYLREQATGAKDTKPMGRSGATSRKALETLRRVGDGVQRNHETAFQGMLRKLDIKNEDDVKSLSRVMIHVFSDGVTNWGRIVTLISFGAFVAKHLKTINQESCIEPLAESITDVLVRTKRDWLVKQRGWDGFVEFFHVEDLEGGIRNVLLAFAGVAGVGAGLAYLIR

Streptococcus = assay: GAS UMAA2166 growth inhibition – luminescence, BacTiterGlo, counter-screen for streptokinase expression inhibitor project, dose response (AID 1915); assay type: functional, organism-based;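 further: potency for reduction of bacterial viability or growth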
Genome polyprotein = Genome polyprotein (dengue virus type 2, UniProt P29990); assay: flavivirus cap methylation enzyme inhibition – biochemical, confirmation dose response, primary screen (AID 588689); assay type: functional
Sequence of Genome polyprotein (P29990 2492-3391 limits assumed): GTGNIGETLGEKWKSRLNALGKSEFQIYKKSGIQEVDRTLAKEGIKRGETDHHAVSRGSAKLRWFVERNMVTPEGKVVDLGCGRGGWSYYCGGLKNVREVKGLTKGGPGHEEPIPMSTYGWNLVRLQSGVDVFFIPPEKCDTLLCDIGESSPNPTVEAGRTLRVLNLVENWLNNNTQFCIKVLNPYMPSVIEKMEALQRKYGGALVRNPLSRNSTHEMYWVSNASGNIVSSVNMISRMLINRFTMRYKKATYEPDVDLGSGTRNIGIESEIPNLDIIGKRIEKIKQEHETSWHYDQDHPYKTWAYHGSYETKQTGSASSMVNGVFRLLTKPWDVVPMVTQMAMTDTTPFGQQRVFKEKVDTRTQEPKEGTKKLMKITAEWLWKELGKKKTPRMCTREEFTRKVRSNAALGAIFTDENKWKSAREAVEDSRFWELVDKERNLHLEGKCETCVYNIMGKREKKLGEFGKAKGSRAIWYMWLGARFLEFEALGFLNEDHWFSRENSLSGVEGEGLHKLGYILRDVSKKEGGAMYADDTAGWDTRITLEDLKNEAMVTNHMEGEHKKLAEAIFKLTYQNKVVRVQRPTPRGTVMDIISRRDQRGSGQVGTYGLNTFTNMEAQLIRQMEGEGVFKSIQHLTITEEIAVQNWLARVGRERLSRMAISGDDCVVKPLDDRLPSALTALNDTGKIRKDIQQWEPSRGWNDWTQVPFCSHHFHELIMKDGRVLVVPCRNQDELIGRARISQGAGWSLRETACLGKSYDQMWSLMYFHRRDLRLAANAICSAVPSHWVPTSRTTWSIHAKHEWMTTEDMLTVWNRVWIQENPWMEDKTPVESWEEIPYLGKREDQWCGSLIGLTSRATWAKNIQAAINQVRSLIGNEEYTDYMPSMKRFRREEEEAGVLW

[9] = target: Long-chain-fatty-acid--AMP ligase FadD28 (Mycobacterium tuberculosis, UniProt P9WQ59); assay: Fluorescence polarization aasay to screen for inhibitors that compete for the binding of FadD28 to a bisubstrate Measured in Biochemical System Using Plate Reader - 2147-01_Inhibitor_Dose_CherryPick_Activity.; assay type: functional, Mycobacterium tuberculosis H37Rv
Sequence of Long-chain-fatty-acid--AMP ligase FadD28 (P9WQ59 whole entry, the tested form may be a part): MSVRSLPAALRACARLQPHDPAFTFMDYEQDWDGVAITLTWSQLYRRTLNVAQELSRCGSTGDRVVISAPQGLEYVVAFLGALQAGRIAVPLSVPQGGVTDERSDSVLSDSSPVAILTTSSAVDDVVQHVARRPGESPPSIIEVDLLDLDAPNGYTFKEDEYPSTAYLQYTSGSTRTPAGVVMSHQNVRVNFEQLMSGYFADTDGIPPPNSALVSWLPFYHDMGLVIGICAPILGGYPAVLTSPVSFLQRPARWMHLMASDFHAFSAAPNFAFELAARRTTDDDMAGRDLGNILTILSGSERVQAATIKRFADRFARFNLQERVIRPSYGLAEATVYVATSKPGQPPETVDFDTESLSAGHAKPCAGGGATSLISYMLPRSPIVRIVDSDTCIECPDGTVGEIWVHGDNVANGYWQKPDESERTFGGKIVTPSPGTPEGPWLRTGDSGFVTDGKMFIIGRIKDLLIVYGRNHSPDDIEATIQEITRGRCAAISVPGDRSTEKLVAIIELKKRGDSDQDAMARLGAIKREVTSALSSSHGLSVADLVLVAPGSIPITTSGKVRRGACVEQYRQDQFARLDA

[10] = target: Disintegrin and metalloproteinase domain-containing protein 17 (Homo sapiens, UniProt P78536); assay: exosite inhibitors of ADAM17, dose response, biochemical (AID 743260)
[11] = inhibition of ADAM10 peptide cleavage – biochemical, FRET peptide substrate, recombinant human ADAM10, selectivity assay for ADAM17 exosite inhibitor project, dose response (AID 743259);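 further: ADAM10 enzyme cleaving a FRET peptide substrate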
Vero = assay: mammalian cell viability reduction – secondary assay, cytotoxicity control for West Nile virus antiviral project, dose response (AID 1650); assay type: functional; conditions: Chlorocebus sabaeus
[12] = target: Delta-type opioid receptor (Homo sapiens, UniProt P41143); assay: Counterscreen for agonists of heterodimerization of the mu 1 (OPRM1) and delta 1 (OPRD1) opioid receptors: Luminescence-based cell-based high throughput dose response assay to identify agonists of OPRD1 homodimerization. [Related pubchem assays (depositor defined):AID504326, AID504355, AID504692, AID504904, AID504905]; assay type: functional
Sequence of Delta-type opioid receptor (P41143 whole entry): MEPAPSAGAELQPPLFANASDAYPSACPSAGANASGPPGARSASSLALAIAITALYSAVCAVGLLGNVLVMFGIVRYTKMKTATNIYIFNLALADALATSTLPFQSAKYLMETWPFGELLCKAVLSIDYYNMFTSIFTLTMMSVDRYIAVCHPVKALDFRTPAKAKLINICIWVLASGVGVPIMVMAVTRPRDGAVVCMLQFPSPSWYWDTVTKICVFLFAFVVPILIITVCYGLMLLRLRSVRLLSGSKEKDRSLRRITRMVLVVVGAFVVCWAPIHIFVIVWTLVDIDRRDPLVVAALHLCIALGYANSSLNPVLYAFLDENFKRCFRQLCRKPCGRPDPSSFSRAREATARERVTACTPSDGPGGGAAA

Mu-type opioid receptor [13] = target: T2, Mu-type opioid receptor; assay: Counterscreen for agonists of heterodimerization of the mu 1 (OPRM1) and delta 1 (OPRD1) opioid receptors: Luminescence-based cell-based high throughput dose response assay to identify agonists of OPRM1 homodimerization.; assay type: functional
[14] = target: 5-hydroxytryptamine receptor 5A (Homo sapiens, UniProt P47898); assay: Counterscreen for agonists of OPRM1-OPRD1 heterodimerization: luminescence-based cell-based high throughput dose response assay to identify agonists of 5-hydroxytryptamine (serotonin) 5A receptor (HTR5A). [Related pubchem assays (depositor defined):AID504326, AID504355, AID504692, AID504904, AID504905]; assay type: functional
Sequence of 5-hydroxytryptamine receptor 5A (P47898 whole entry): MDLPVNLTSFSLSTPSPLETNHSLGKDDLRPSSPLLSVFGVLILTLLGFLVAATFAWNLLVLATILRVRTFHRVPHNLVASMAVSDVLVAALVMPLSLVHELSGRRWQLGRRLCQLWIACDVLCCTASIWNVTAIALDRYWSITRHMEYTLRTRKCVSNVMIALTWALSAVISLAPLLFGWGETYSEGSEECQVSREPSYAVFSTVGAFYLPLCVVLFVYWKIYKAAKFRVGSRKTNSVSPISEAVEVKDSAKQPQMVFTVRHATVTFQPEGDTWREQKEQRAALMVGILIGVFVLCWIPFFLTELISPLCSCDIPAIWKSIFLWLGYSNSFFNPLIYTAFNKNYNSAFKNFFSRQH

INS1 = assay: INS-1E survival protection against cytokine death – cell-based, luminescence, retest, dose response (AID 449756); assay type: functional; conditions: Rattus norvegicus;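 further: cell death triggered by IL-1 beta plus TNF-alpha plus IFN-gamma mixture; protective hits raise ATP signal compared with cytokine alone wells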
[15] = cytotoxicity toward MDA-MB-231 breast cancer cells – cell-based, CellTiter-Glo luminescence, cherry-pick, cytotoxicity control for RAD54 inhibitor project, dose response (AID 651692); assay type: functional
[16] = target: DNA repair and recombination protein RAD54-like (Homo sapiens, UniProt Q92698); assay: RAD54 Holliday junction migration blockers – biochemical, fluorescence, cherry-picked samples, dose series, confirmation (AID 651657); assay type: functional
Sequence of DNA repair and recombination protein RAD54-like (Q92698 whole entry): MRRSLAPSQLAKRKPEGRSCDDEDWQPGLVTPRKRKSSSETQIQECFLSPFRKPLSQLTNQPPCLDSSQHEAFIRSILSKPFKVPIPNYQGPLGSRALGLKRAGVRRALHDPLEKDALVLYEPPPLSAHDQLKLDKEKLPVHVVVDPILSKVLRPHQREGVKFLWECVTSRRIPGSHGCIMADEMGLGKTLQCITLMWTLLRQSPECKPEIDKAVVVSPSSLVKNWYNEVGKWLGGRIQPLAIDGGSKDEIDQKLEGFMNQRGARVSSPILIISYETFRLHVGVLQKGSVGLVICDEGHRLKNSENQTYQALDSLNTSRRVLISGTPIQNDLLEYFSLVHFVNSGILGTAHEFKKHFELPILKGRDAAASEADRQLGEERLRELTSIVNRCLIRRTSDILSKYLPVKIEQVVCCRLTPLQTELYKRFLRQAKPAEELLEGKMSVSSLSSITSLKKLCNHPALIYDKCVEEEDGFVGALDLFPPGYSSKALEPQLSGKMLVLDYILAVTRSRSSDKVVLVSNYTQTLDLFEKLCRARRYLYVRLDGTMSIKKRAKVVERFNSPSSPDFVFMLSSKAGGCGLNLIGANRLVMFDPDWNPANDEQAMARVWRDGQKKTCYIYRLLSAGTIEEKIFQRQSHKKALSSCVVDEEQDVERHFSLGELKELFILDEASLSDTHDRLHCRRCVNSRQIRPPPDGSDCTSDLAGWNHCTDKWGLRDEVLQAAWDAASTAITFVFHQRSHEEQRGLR

[17] = target: T4, DNA repair protein RAD52 homolog (Homo sapiens, UniProt P43351); assay type: functional, biochemical
T4 sequence (P43351 whole entry): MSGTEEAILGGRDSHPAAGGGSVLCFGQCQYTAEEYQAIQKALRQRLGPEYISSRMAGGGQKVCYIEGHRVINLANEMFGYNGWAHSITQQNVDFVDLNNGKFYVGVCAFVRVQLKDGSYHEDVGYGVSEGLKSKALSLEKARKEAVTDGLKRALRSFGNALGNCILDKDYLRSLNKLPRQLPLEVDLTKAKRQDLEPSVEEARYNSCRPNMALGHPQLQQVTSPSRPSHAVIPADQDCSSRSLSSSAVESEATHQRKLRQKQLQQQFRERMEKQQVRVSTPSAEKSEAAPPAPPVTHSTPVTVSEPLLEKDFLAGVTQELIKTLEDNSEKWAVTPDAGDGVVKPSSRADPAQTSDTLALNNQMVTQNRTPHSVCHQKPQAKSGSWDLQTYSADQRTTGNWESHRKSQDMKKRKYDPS

cells = assay type: functional, cell-based
[18] = target: T5, Nuclear receptor subfamily 0 group B member 1 (Homo sapiens, UniProt P51843); assay type: functional, cell-based;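 further: HEK293T cells transfected with SF-1 and DAX-1 plus StAR promoter luciferase reporter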
T5 sequence (P51843 whole entry): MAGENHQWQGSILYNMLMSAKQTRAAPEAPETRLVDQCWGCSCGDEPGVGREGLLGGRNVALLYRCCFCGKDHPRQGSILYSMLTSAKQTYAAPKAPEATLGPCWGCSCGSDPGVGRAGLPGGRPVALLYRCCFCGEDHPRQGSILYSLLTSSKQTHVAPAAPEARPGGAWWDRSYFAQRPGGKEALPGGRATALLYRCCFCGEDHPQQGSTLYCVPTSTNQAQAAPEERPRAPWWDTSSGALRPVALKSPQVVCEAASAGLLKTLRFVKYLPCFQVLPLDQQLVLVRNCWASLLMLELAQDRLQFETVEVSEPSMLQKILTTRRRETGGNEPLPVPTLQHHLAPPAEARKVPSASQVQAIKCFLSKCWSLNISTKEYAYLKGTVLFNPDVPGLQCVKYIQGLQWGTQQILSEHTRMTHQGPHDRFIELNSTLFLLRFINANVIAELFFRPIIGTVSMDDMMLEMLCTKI

SMILES: C[C@H](CO)N1C[C@H](C)[C@H](CN(C)C(=O)Nc2ccc(F)cc2)OCCCC[C@H](C)Oc2ccc(NC(=O)NC3CCCCC3)cc2C1=O
- AC50 [1]: 8.05 µM (active)

SMILES: N#C/C(=C(\O)Nc1cccc(Cl)c1)c1nc2ccccc2[nH]1
- IC50 [2]: 66 µM (inactive)
- IC50 [3]: > 66 µM (inactive)
- IC50 [4]: 52.6 µM (inactive)

SMILES: Cc1cccc(C)c1-n1nnnc1C(C1CC1)N1CCN(C/C=C/c2ccccc2)CC1 (centres undefined)
- EC50 (Mu-type opioid receptor [5]): 92.6 µM (inactive)
- EC50 [6]: 0.94 µM (active)

SMILES: Cc1[nH]n(-c2ncc(-c3ccccc3)s2)c(=O)c1C(c1ccc(Br)cc1)C(C#N)C#N (centres undefined)
- EC50 [7]: 3.39 µM (active)
- EC50 (Streptokinase A): > 150 µM (not active)
- IC50 [8]: 4.67 µM (active)
- EC50 (Streptococcus): 5.75 µM (active)
- IC50 (Genome polyprotein): 22.3 µM (active)
- AC50 [9]: 35.5 µM (active)
- IC50 [10]: > 69.5 µM (inactive)
- IC50 [11]: 10.6 µM (inactive)

SMILES: CCOc1ccc(Nc2c3ccccc3nc3ccccc23)cc1
- CC50 (Vero): 6.47 µM (active)
- EC50 [12]: > 92.5 µM (inactive)
- EC50 (Mu-type opioid receptor [13]): 43.8 µM (inactive)
- EC50 [14]: > 92.5 µM (inactive)
- AC50 (INS1): 5.05 µM (active)
- AC50 [15]: 46.9 µM (active)
- AC50 [16]: 7.28 µM (active)
- AC50 [17]: 1.57 µM (active)

SMILES: CN1OC[C@@H]2CN[C@H](c3ccc(-c4cccc(F)c4)cc3)C[C@@H]21
- IC50 (cells): > 67.5 µM (inactive)
- IC50 [18]: > 67.5 µM (inactive)
